Assay results: ChEMBL document CHEMBL4393699, “Ligand retargeting by binding site analogy” (Eur J Med Chem, 2019)
Active and inactive are the calls of the source. No cut-off for these calls is given here.

How the values were obtained:
Homo sapiens = species on record: Homo sapiens; assay: Selectivity ratio of IC50 for BACE1 (unknown origin) to IC50 for recombinant His-tagged […] (unknown origin) expressed in Escherichia coli BL21 (DE3) cells
Beta-secretase 1 [1] = target: T1, Beta-secretase 1 (Homo sapiens, UniProt P56817); assay: Inhibition of BACE1 (unknown origin) using HiLyte Fluo488/QXL-520 as substrate by FRET assay
T1 sequence (P56817 whole entry): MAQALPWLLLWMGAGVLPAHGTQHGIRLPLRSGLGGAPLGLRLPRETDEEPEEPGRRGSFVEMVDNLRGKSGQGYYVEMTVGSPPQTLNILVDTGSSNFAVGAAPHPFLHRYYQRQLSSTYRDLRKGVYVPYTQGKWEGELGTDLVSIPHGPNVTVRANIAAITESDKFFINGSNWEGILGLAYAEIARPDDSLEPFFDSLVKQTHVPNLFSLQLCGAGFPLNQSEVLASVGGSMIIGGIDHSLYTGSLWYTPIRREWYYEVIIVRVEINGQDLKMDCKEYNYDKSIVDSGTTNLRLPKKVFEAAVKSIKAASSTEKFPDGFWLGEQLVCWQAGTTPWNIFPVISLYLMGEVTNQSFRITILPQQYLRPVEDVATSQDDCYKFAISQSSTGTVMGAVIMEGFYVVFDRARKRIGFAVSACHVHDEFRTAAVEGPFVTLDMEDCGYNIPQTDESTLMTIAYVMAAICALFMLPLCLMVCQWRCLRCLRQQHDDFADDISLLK

Beta-secretase 1 [2] = target: T1, Beta-secretase 1; assay: Inhibition of BACE1 (unknown origin) at 200 uM using HiLyte Fluo488/QXL-520 as substrate by FRET assay
HeLa = assay: Antiproliferative activity against human HeLa cells assessed as reduction in cell growth incubated for 72 hrs by resazurin dye based fluorescent assay
[3] = target: Voltage-gated inwardly rectifying potassium channel KCNH2 (Homo sapiens, UniProt Q12809); assay: Inhibition of fluorescently labeled tracer binding to human ERG at 200 uM by competitive binding assay
Chain of Voltage-gated inwardly rectifying potassium channel KCNH2 (Q12809 whole entry): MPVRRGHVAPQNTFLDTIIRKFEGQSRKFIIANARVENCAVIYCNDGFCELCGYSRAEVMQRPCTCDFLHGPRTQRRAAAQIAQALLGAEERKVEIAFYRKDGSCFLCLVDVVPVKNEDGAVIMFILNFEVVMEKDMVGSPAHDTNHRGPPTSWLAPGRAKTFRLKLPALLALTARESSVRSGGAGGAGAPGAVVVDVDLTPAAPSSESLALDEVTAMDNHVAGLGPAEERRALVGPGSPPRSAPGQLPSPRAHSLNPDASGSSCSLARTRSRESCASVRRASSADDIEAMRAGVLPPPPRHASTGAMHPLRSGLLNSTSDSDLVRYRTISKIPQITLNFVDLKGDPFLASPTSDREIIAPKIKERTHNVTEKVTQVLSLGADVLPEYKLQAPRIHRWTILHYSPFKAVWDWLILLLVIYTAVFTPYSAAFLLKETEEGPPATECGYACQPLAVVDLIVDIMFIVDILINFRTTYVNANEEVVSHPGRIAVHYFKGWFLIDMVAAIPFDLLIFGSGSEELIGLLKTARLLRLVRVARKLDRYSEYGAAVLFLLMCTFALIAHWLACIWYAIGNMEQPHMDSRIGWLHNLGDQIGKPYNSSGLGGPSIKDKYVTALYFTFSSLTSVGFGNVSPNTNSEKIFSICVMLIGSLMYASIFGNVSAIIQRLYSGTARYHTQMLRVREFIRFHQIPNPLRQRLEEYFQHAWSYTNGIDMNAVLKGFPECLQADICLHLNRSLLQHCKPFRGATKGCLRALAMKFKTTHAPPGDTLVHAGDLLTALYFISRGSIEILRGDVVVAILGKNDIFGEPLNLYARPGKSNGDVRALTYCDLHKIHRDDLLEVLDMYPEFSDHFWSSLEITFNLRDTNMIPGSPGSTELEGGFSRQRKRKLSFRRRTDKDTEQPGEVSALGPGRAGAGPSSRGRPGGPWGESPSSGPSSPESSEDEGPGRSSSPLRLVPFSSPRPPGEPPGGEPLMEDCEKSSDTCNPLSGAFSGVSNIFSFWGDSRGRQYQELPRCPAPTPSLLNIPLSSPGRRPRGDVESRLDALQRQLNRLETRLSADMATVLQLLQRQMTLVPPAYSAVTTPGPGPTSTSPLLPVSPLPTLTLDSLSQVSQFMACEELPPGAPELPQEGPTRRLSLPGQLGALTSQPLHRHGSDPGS

Row | Structure (SMILES) | Ratio IC50 (Homo sapiens) | IC50 (Beta-secretase 1 [1]) [µM] | inhibition (Beta-secretase 1 [2]) | GI50 (HeLa) [µM] | inhibition (INH) [3]
1 | NCCc1ccc(O)c(C2CCCCC2)c1 | 5 | – | – | – | –
2 | Nc1nc2ncccc2[nH]1 | – | > 200 | inactive | – | –
3 | Nc1nc(NC2CC2)cc(-c2cccc(Cl)c2Cl)n1 | – | – | – | 3.8 | –
4 | Nc1nc2c(-c3ccncc3F)ccnc2[nH]1 | – | > 200 | inactive | 30 to 90 | Not Active
